Measured values: patent publication US20230201313A1, “METHODS OF TREATING LEFT VENTRICLE HYPERTROPHY” (Amgen Inc., priority 2020, published 2023)
Entries after “also recorded” stand apart in the source; their conditions may differ.

What was measured:
PTH [1] = conditions: Hansen et al. 2012; cited from earlier work
FGF23 [2] = conditions: Hansen et al. 2012; cited from earlier work
1.25(OH)2 vitamin D = conditions: after a single 10 mg dose; cited from earlier work
FGF23 [3] = conditions: at 24 hours after a single 10 mg dose; cited from earlier work
PTH [4] = conditions: single intravenous dose, patients on hemodialysis; cited from earlier work
calcium = assay: Trial secondary endpoint: calcium blood levels; type: in vivo, human; conditions: 55 individuals, 12-month follow-up, FIGS. 5A-5B, versus alfacalcidol group
From the text: In FIGS. 5A-5B, the calcium blood levels for the subjects in each treatment group is shown. On average, 17 measurements were available throughout follow-up for each individual.
(§1) Outcomes measurements: Laboratory analyses: Biochemical data was collected prior to hemodialysis at baseline and periodically (e.g., intact PTH, calcium, phosphate, 25-OH-Vit-D, 1,25-(OH)2-Vit-D every two weeks during the first 10 weeks followed by measurements every 4 weeks; while intact FGF23, s-klotho, proBNP and pre+postdialysis TnT was measured in 8-week-intervals). Additionally, a RAAS fingerprint was conducted before start and at the end of the treatment phase. The RAAS fingerprint is a mass spectrometry-based quantification of angiotensin metabolites. […]
(§2) Intact PTH, calcium and phosphate were analyzed in serum samples using the Cobas assay (Roche, reference range of PTH: 15-65 pg/mL, calcium: 2.15-2.55 mmol/L, phosphate: 0.81-1.45 mmol/L). Vitamin D was measured using serum samples and a chemiluminescent-immunoassays (Diasorin, reference range of 1.25-(OH)2-VitD: 19.9-79.3 pg/mL; 25-OH-Vit-D 75-250 nmol/L). Ionized calcium was measured during every dialysis session (using blood gas analysis (ABL 800 Flex, Drott)). Intact FGF23 was analyzed in plasma samples using chemiluminescent—Immunoassays (DiaSorin, reference range 23.2-95.4 pg/mL). […]

[5] = system: maintenance hemodialysis patients with secondary hyperparathyroidism (SHPT) and LVH; assay: Single blinded randomized 12-month trial, etelcalcetide vs alfacalcidol: left ventricular mass index (LVMI) by cardiac MRI; type: in vivo, human; conditions: for estimated adjusted mean difference in the change of LVMI: ANCOVA, 1 year vs baseline, etelcalcetide group compared to alfacalcidol group
From the text: For the study, 62 patients were recruited, of which 30 patients were randomized to treatment with alfacalcidol and 32 to treatment with etelcalcetide. During the course of the 12-month study, ten patients dropped out during follow-up. Data for the main outcome (left ventricular mass index, LVMI in g/m^2) was available for the patients at baseline (enrollment) and at the 1-year follow-up, except for three patients as noted in Example 1. FIG. 1A illustrates a flow chart of the study design. Turning now to FIGS. 2A-2B, data from the study is presented. […] Thus, the 10 patients who dropped out during the study are removed from the analysis. FIG. 2A is a boxplot of the unadjusted primary endpoint for the alfacalcidol and the etelcalcetide treatment groups. […] The unadjusted comparison of the primary endpoint by a 2-sample equal variances t-test yields a significant difference in LVMI change between the treatment groups (p=0.007156). Due to the non-normal distribution of the data, a non-parametric 2-sample Wilcoxon test was also performed to confirm the result (p=0.0006661). An analysis adjusted for the stratification of the randomization was conducted using an Analysis of Covariance (ANCOVA) with outcome variable “Change of LVMI” and using the randomization stratification factors (residual kidney function, center of recruitment) as well as the LVMI at baseline as covariates. […] The associated p-value was 0.00809, in accordance with the result of the unadjusted analysis. In another analysis of the data, referred to as in intention-to-treat analysis, all patients who were randomized for the study are included in the data analysis. Thus, for the 10 patients who dropped out during the study all available measurements are used at the time they were taken. Out of those, for the 3 patients without MRI measurements the outcome values are imputed (obtained as mean values from patients of the same medication group with stratification factors identical to the patient with missing data). Final data on the primary study endpoint, difference of LVMI (g/m^2) at 1 year and LVMI at baseline, for the 62 patients who were randomized for the study is shown in FIG. 2B. The unadjusted comparison of the primary endpoint by a 2-sample equal variances t-test yields a significant difference in LVMI change between the treatment groups (p=0.04691). However, due to the distribution of the data the non-parametric Wilcoxon test is deemed more reliable and confirms the results (p=0.006098). […] The associated p-value was 0.031, in accordance with the result of the unadjusted analysis. Study Overview: A single blinded randomized trial of twelve months to test the effects of etelcalcetide compared to alfacalcidol on LVH and cardiac fibrosis in maintenance hemodialysis patients with secondary hyperparathyroidism (SHPT) was conducted. Both treatment regimens were titrated to equally suppress SHPT. Patients treated three times weekly with hemodialysis for between about 3 months and about 3 years and with parathyroid hormone (PTH) levels ≥300 pg/ml and LVH were enrolled. The primary study endpoint was left ventricular mass index (LVMI) determined in g/m^2 at baseline and at 12 months by cardiac MRI (cMRI). […] Due to the strong association of volume overload and LVH, randomization was additionally stratified by residual kidney function and regular body composition monitoring was performed to control patients' volume status. […]

FGF23 [6] = assay: Trial secondary endpoint: FGF23 blood levels; type: in vivo, human; conditions: 55 individuals, 12-month follow-up, FIGS. 4A-4B, versus alfacalcidol group
From the text: In FIGS. 4A-4B, the data on FGF23 blood levels for the subjects in each treatment group is shown. On average, 8 measurements were available throughout follow-up for each individual.
as §1, §2

| Structure (SMILES) | decrease of PTH levels (PTH [1]) | increase of FGF23 levels (FGF23 [2]) | effect on 1.25(OH)2 vitamin D levels (1.25(OH)2 vitamin D) | decrease of FGF23 levels (FGF23 [3]) | duration of lowering of serum levels of PTH (PTH [4]) | calcium blood levels, overall measurements and longitudinal behavior (calcium) | Prevention of LVH progression ([5]; dialysis patients with sHPT, compared to alfacalcidol) | LVMI progression ([5]; dialysis patients with sHPT, compared to treatment with alfacalcidol) | estimated adjusted mean difference in the change of LVMI ([5]; intention-to-treat analysis (62 randomized patients), p=0.031) | effect on LVH and cardiac fibrosis ([5]; patients under maintenance hemodialysis, through a suppression of FGF23) | estimated adjusted mean difference in the change of LVMI ([5]; per-protocol analysis (52 patients who completed), p=0.00809) | FGF23 blood levels, overall measurements and longitudinal behavior (FGF23 [6]) |
| --- | --- | --- | --- | --- | --- | --- | --- | --- | --- | --- | --- | --- |
| C=C1/C(=C\C=C2/CCC[C@]3(C)[C@@H]([C@H](C)CCCC(C)C)CC[C@@H]23)C[C@@H](O)C[C@@H]1O [Alfacalcidol] | ≥ 30% | threefold |  |  |  |  |  |  |  |  |  |  |
| CC(=O)N[C@H](CSSC[C@H](N)C(=O)O)C(=O)N[C@H](C)C(=O)N[C@H](CCCNC(=N)N)C(=O)N[C@H](CCCNC(=N)N)C(=O)N[C@H](CCCNC(=N)N)C(=O)N[C@H](C)C(=O)N[C@H](CCCNC(=N)N)C(N)=O [etelcalcetide, (2R)-3-[[(2S)-2-acetamido-3-[[(2R)-1-[[(2R) [[(2R)-1-[[(2R)-1-[[(2R)-1-[[(2R)-1-amino-5-(diaminomethydeneamino)-1-oxopentanyl]amino]-1-oxopropan-2-yl]amino]-5-(diaminomethydeneamino)-1-oxopentan-2-yl]amino]-5-(diaminomethydeneamino)-1-oxopentan-2-yl]amino]-5-(diaminomethydeneamino)-1-oxopentan-2-yl]amino]-1-oxopropan-2-yl]amino]-3-oxopropyl]disulfanyl]-2-aminopropanoic acid] |  |  | little or no effect | over 30% | up to 72 hours | lower values which were decreasing over time | 6-8% | prevented LVMI progression | −6.2 (95% confidence interval −11.72 to −0.71) g/m^2 | effectively ameliorates LVH and cardiac fibrosis | −8.2 (95% confidence interval −13.99 to −2.39) g/m^2 | lower values which were decreasing over time; also recorded: decreased FGF23 levels |
